Reference: PubChem BioAssay (NCI)
Where “and” joins values, the source holds several entries; their conditions need not be identical. Equal values may be shown once.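 Cells were grown in 96-well plates and exposed to each compound for 48 hours at five concentrations; endpoints were interpolated linearly between bracketing concentrations, or set to the highest concentration if not reached. Abbreviation: GI50, concentration required for 50% inhibition of growth. At the TGI there is no net growth.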

Tests used:
Assay in all cases: inhibition of tumour cell growth, NCI panel, 48 h
MDA-MB-231 breast = test system: MDA-MB-231 breast
SK-MEL-5 melanoma = test system: SK-MEL-5 melanoma
U251 CNS = test system: U251 CNS
NCI-H460 lung = test system: NCI-H460 lung
786-0 renal = test system: 786-0 renal
NCI/ADR-RES ovarian = test system: NCI/ADR-RES ovarian
HOP-62 NSCLC = test system: HOP-62 NSCLC
NCI-H226 lung = test system: NCI-H226 lung
K-562 leukemia = test system: K-562 leukemia
HOP-92 NSCLC = test system: HOP-92 NSCLC

Compound | GI50 (MDA-MB-231 breast) | TGI (MDA-MB-231 breast) | GI50 (SK-MEL-5 melanoma) | TGI (SK-MEL-5 melanoma) | GI50 (U251 CNS) | TGI (U251 CNS) | GI50 (NCI-H460 lung) | TGI (NCI-H460 lung) | GI50 (786-0 renal) | TGI (786-0 renal) | GI50 (NCI/ADR-RES ovarian) | TGI (NCI/ADR-RES ovarian) | GI50 (HOP-62 NSCLC) | TGI (HOP-62 NSCLC) | GI50 (NCI-H226 lung) | TGI (NCI-H226 lung) | GI50 (K-562 leukemia) | TGI (K-562 leukemia) | GI50 (HOP-92 NSCLC) | TGI (HOP-92 NSCLC)
O=C(/C=C/c1ccc([N+](=O)[O-])o1)NNC(=O)c1cc2ccccc2cc1O | 2.43 µM | > 100 µM | 0.656 µM | 2.04 µM | 2.17 µM | > 26.1 µM | 2.82 µM | > 100 µM | 1.54 µM | 3.47 µM | 1.48 µM | 10.6 µM | 3.67 µM | > 100 µM | 3.51 µM | 34.1 µM | 1.41 µM | > 100 µM | 2.75 µM | > 100 µM
COc1ccc(N=Cc2ccc(N(CCC#N)CCC#N)cc2)cc1 | – | > 100 µM | – | > 100 µM | – | > 100 µM | – | > 100 µM | – | > 100 µM | – | > 100 µM | – | > 100 µM | – | > 100 µM | – | > 100 µM | – | > 100 µM
Cc1ccc2c(c1)sc(-c1ccc(N(C)C)cc1)[n+]2C | 2.75 µM | 21.1 µM | 0.39 µM | 1.8 µM | 0.467 µM | > 76 µM | 1.18 µM | 8.25 µM | 3.69 µM | > 45.9 µM | > 95.8 µM | > 100 µM | 3.66 µM | > 41.4 µM | 3.26 µM | > 100 µM | 0.242 µM | > 50.3 µM | 0.719 µM | 5.36 µM
CC1(C)C(=O)/C(=C\c2ccco2)C[C@]2(C)[C@H]3CC=C4[C@@H]5C[C@](C)(C(=O)O)CC[C@]5(C)CC[C@@]4(C)[C@]3(C)CC[C@@H]12 | 14.1 µM | 31.6 µM | 10.5 µM | 22.5 µM | 7.92 µM | 24.8 µM | 5.45 µM | 20.9 µM | 9.51 µM | 25 µM | 10 µM | 29.2 µM | 10.1 µM | 28.5 µM | 9.92 µM | 37 µM | 5.17 µM | 93 µM | 3.83 µM | 17 µM
COC1C(=O)CCC2(CO2)C1(O)C1(C)OC1CCC(C)C (stereo not drawn) | – | > 100 µM | – | > 100 µM | – | > 100 µM | – | > 100 µM | – | > 100 µM | – | > 100 µM | – | > 100 µM | – | > 100 µM | – | > 100 µM | – | > 100 µM
O=C1Cc2c(-c3ccccc3)cc(-c3cccc(Cl)c3)nc2-c2ccccc2N1 | – | 5.49 µM | – | > 48.7 µM | – | 3.12 µM | – | 3.71 µM | 0.977 µM | 2.42 µM | – | 7.46 µM | – | 4.12 µM | – | 17.7 µM | – | > 40.3 µM | – | 5.42 µM
CCN(CC)C(=S)SSC1CCCCC1 | 17.3 µM | 37.1 µM | 12.5 µM | 26.3 µM | 14.2 µM | 29.1 µM | 18.3 µM | 52.7 µM | 19.6 µM | 35 µM | 21.3 µM | 47 µM | 26.8 µM | 77.9 µM | 24.7 µM | 76.1 µM | 11.3 µM | 38.8 µM | 14.3 µM | 40 µM
CN(C)CN1C(=O)S/C(=C2\C(=O)N(CN(C)C)c3ccccc32)C1=O | – | > 100 µM | – | > 100 µM | – | > 100 µM | – | > 100 µM | – | > 100 µM | – | > 100 µM | – | > 100 µM | – | > 100 µM | – | – | – | > 100 µM
N#C/C(=C(\O)C(=O)O)c1ccc(-c2cccc3ccccc23)cc1 | – | > 100 µM | – | > 100 µM | – | > 100 µM | – | > 100 µM | – | > 100 µM | – | > 100 µM | – | > 100 µM | – | > 100 µM | – | > 100 µM | – | > 100 µM
CCCCS(=N)(=O)CC[C@H](N)C(=O)O (stereo partly drawn) | > 10000 µM | > 10000 µM | > 10000 µM | > 10000 µM | > 10000 µM | > 10000 µM | > 3940 µM | 5000 µM and > 10000 µM | – | 434 µM and > 2460 µM | 1770 µM | 5000 µM and > 6020 µM | > 7620 µM | > 10000 µM | > 10000 µM | > 10000 µM | 11.3 µM | > 10000 µM | 945 µM | –
Nc1ccc2c(c1)[O][Sn]([c]1ccccc1)([c]1ccccc1)[O]C2=O | 5.11 µM | 11.6 µM | 11.6 µM | 25 µM | 8.6 µM | 16.3 µM | 16 µM | 33.6 µM | 3.79 µM | 7.95 µM | 9.08 µM | 30.2 µM | 19.6 µM | 34.9 µM | 9.13 µM | 16.7 µM | 2.56 µM | 15.2 µM | 2.59 µM | 7.11 µM
